Source: paper PMC9309146 (Advances in Therapy, 2022)
Read-outs that look alike come from different tables or passages of the source.

Experiments:
Population PK = assay type: in vivo, human
Exposure-safety analysis = assay type: in vivo, human; conditions: logistic regression
[1] = legacy popPK analysis ref 20; cited from earlier work
[2] = MURANO popPK evaluation ref 24; cited from earlier work

CC1(C)CCC(CN2CCN(c3ccc(C(=O)NS(=O)(=O)c4ccc(NCC5CCOCC5)c([N+](=O)[O-])c4)c(Oc4cnc5[nH]ccc5c4)c3)CC2)=C(c2ccc(Cl)cc2)C1 [venetoclax]
rituximab co-administration effect: increase in CL/F (Population PK; current analysis): 7%
increase in F1 (Population PK; dose decrease from 400 to 200 mg): 11.0%
decrease in F1 (Population PK; dose increase from 400 to 800 mg): 9.9%
decrease in F1 (Population PK; fasting state relative to low-fat state): 66.2%
V2/F lower (Population PK; females than males): 29.7%
effect of obinutuzumab co-administration on CL/F and F1 (Population PK; forward addition covariate testing): no effect
increase in F1 (Population PK; high-fat meal relative to low-fat): 44.3%
relationship between CL/F and body weight, age, gender, mild or moderate hepatic or renal impairment, CrCL, bilirubin, ALT, AST, albumin, P-glycoprotein or weak CYP3A inhibitors (Population PK; human, in vivo): no relationship was observed
increase in F1 (Population PK; meal-fed state without specification of fat content): 28.9%
increase in F1 (Population PK; moderate-fat meal relative to low-fat): 40.4%
V2/F higher (Population PK; patients compared with healthy individuals): 73.3%
decrease in CL/F (Population PK; with OATP1B3 hepatic uptake transporter inhibitors): 13.6%
decrease in CL/F (Population PK; with moderate CYP3A inhibitors): 13.9%
decrease in CL/F (Population PK; with strong CYP3A inhibitors): 82.2%
p value, association of CmeanSS,nominal with probability of SAEs (Exposure-safety analysis): 0.214
p value, association of CmeanSS,nominal with probability of grade ≥ 3 infections (Exposure-safety analysis): 0.149
rituximab co-administration effect: increase in CL/F [1]: 22%
rituximab co-administration effect: decrease in CL/F [2]: 7%
